The text below walks through data of patent publication US11066419B2, “1H-pyrrole-2,5-dione compounds and methods of using same” (Frequency Therapeutics, Inc., priority 2016, dated 2021).

For test [1], the target named is recombinant human GSK3α (Homo sapiens, UniProt P49840). Briefly: In vitro enzymatic assay for inhibition of GSK3α (Kinase-Glo Max luminescence). It counts as biochemical. Conditions: 10 uM ATP, 0.1 mg/ml GSKtide, 30° C. 40 minutes, read-out: Potency Alpha. How it is done:
(§1) Enzymatic activities using recombinant human GSK3 using an in vitro enzymatic assay for inhibition GSK3α and GSK3β.
(§2) The assay was performed using Kinase-Glo Max luminescence kinase assay kit (Promega). It measures kinase activity by quantitating the amount of ATP remaining in solution following a kinase reaction. The luminescent signal from the assay is correlated with the amount of ATP present and is inversely correlated with the amount of kinase activity. The compounds were diluted in 10% DMSO and 5 μl of the dilution was added to a 50 μl reaction so that the final concentration of DMSO is 1% in all of reactions. The enzymatic reactions were conducted at 30° C. for 40 minutes. The 50 μl reaction mixture contains 40 mM Tris, pH 7.4, 10 mM MgCl2, 0.1 mg/ml BSA, 2 mM DTT, 0.1 mg/ml GSKtide substrate, 10 uM ATP and GSK3. After the enzymatic reaction, 50 μl of Kinase-Glo Max Luminescence kinase assay solution (Promega) was added to each reaction and incubate the plate for 15 minutes at room temperature. Luminescence signal was measured using a BioTek Synergy 2 microplate reader.
(§3) Kinase activity assays were performed in duplicate at each concentration. The luminescence data were analyzed using the computer software, Graphpad Prism. The difference between luminescence intensities in the absence of Kinase (Lut) and in the presence of Kinase (Luc) was defined as 100% activity (Lut−Luc). Using luminescence signal (Lu) in the presence of the compound, % activity was calculated as: % activity={(Lut−Lu)/(Lut−Luc)}×100%, where Lu=the luminescence intensity in the presence of the compound (all percent activities below zero were shown zero in the table).
(§4) The values of % activity versus a series of compound concentrations were then plotted using non-linear regression analysis of Sigmoidal dose-response curve generated with the equation Y=B+(T−B)/1+10((Log EC50−X)×Hill Slope), where Y=percent activity, B=minimum percent activity, T=maximum percent activity, X=logarithm of compound and Hill Slope=slope factor or Hill coefficient. The IC50 value was determined by the concentration causing a half-maximal percent activity.
(In general: In Kinase-Glo more light means more ATP remaining.)

For test [2], the target named is recombinant human GSK3β (Homo sapiens, UniProt P49841). Briefly: In vitro enzymatic assay for inhibition of GSK3β (Kinase-Glo Max luminescence). The class given is biochemical. Conditions: 10 uM ATP, 0.1 mg/ml GSKtide, 30° C. 40 minutes, read-out: Potency Beta. How it is done: as §1, §2, §3, §4
Test [3] concerns Lgr5-positive cells. Briefly: Expansion of Lgr5-positive cells (cochlear stem cell expansion, 3D Matrigel culture, flow cytometry for Lgr5-GFP). It counts as cell-based, mouse. The settings on record: for EC50: Mus musculus, 240 h, Lgr5-positive cell expansion, cochlear cells of neonatal Lgr5-EGFP-IRES-Cre-ER mice, 10 days in culture, read-out: Potency; for % of Cells: percentage of Lgr5-GFP-positive cells after 10 days (D10) in culture, flow cytometer. How it is done: Lgr5-EGFP-IRES-Cre-ER mice (Barker et al., 2007) (http://jaxmice.jax.org/strain/008875.html) are used to analyze the effects of small molecules on cochlear stem cell expansion.
Isolation of stem cells from the inner ear: All animal studies are conducted under an approved institutional protocol according to National Institutes of Health guidelines. For experiments with neonatal mice (postnatal days 1-3), the cochleae are dissected in HBSS and the organ of Corti are separated from the stria vascularis and the modiolus. The organs of Corti are then treated with Cell Recovery Solution (Corning) for 1 h to separate cochlear epithelium from the underlying mesenchyme. Epithelia are then collected and treated with TrypLE (Life Technologies) for 15-20 minutes at 37° C. Single cells obtained by mechanical trituration are filtered (40 μm) and suspended in Matrigel (Corning) for 3D culture.
Cells are cultured in a 1:1 mixture of DMEM and F12, supplemented with Glutamax (GIBCO), N2, B27 (Invitrogen), EGF (50 ng/ml; Chemicon), bFGF (50 ng/ml; Chemicon), IGF1 (50 ng/ml; Chemicon) and the composition provided herein. Media are changed every other day.
Lgr5-positive cells are quantified after 10 days (D10) in culture in multiple conditions. Cell colonies are dissociated into single cells using TrypLE (Gibco). The cells are then stained with propidium iodide (PI) and are analyzed using a flow cytometer for Lgr5-GFP expression. The number of GFP-positive cells and the percentage of GFP-positive cells are quantified.

recombinant human GSK3α, sequence (P49840 whole entry): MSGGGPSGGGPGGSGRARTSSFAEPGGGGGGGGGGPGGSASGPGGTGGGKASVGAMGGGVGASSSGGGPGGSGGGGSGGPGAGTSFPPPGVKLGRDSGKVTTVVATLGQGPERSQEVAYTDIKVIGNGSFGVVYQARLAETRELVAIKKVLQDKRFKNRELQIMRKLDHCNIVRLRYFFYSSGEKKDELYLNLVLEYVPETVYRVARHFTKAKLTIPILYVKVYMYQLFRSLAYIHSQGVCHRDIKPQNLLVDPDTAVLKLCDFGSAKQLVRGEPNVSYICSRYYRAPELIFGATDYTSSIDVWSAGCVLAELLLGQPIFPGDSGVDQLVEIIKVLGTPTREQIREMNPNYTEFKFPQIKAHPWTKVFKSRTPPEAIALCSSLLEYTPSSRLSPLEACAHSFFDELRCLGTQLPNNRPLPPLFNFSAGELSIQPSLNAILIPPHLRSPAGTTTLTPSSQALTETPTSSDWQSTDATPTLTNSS
recombinant human GSK3β, sequence (P49841 whole entry): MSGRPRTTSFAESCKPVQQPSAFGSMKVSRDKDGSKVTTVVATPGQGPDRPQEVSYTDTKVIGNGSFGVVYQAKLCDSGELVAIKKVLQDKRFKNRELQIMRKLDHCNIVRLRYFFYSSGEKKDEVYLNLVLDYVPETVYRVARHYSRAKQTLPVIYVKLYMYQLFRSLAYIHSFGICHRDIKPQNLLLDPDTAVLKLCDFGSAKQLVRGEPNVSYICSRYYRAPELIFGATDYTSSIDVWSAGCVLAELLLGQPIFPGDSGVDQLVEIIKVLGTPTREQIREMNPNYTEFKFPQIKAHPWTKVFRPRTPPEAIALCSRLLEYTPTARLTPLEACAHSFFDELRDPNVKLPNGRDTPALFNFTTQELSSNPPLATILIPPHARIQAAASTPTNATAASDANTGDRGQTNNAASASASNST

As for `O=C1NC(=O)C(c2cnc3ccccn23)=C1c1cn2c3c(cc(F)cc13)CN(C(=O)N1CC3CCC(C1)O3)CC2` [Compound I-8], in test [1], the IC50 is 1 to 10 nM. For the same compound, the IC50 in test [2] lay within 1 to 10 nM. In test [3], the EC50 lay in the range of 1 to 100 nM and the “% of Cells” value is “+++ (“+++” indicates greater than about 11%)”.
With `Nc1cc2c3c(c1)c(C1=C(c4cnc5ccccn45)C(=O)NC1=O)cn3CCN(C(=O)N1CCCCC1)C2` [Compound I-4], the IC50 in test [1] was 1 to 10 nM. Besides, in test [2], the IC50 was 1 to 10 nM. In test [3], the EC50 lay in the range of 100 to 1000 nM and the “% of Cells” value is “+++ (“+++” indicates greater than about 11%)”.
For `O=C1NC(=O)C(c2cnc3ccccn23)=C1c1cn2c3c(cc(F)cc13)CN(C(=O)N1CCC(C(O)C(F)(F)F)CC1)CC2` (stereo not shown) [Compound I-31], the IC50 in test [1] and in test [2] was 1 to 10 nM throughout. In test [3], the EC50 was 1 to 100 nM. In test [3], the “% of Cells” value is reported as “+++ (“+++” indicates greater than about 11%)”.
Turning to `O=C1NC(=O)C(c2cnc3ccccn23)=C1c1cn2c3c(cc(C(F)(F)F)cc13)CN(C(=O)N1CCC(F)(F)CC1)CC2` [Compound I-17], the IC50 in test [1] fell in the range of 1 to 10 nM. Moreover, the IC50 in test [2] fell in the range of 1 to 10 nM. Moreover, in test [3], the EC50 is > 1000 nM and the “% of Cells” value is recorded as “+ (“+” indicates about 0-5%)”.
In the case of `O=C1NC(=O)C(c2cnc3ccccn23)=C1c1cn2c3c(cc(C(F)(F)F)cc13)CN(C(=O)N1CC(F)(F)OC(F)(F)C1)CC2` [Compound I-43], the IC50 in test [1] fell in the range of 1 to 10 nM. For the same compound, in test [2], the IC50 lay in the range of 1 to 10 nM. For the same compound, in test [3], the EC50 was 100 to 1000 nM and the “% of Cells” value was “+++ (“+++” indicates greater than about 11%)”.
In the case of `NCC1CCN(C(=O)N2CCn3cc(C4=C(c5cnc6ccccn56)C(=O)NC4=O)c4cc(F)cc(c43)C2)CC1` [Compound I-19], in test [1], the IC50 lay in the range of 1 to 10 nM. For the same compound, the IC50 in test [2] lay within 1 to 10 nM. Moreover, in test [3], the EC50 was > 1000 nM and the “% of Cells” value is given as “+++ (“+++” indicates greater than about 11%)”.
Consider `O=C1NC(=O)C(c2cnc3ccccn23)=C1c1cn2c3c(cc(F)cc13)CN(C(=O)N1CC(F)(F)OC(F)(F)C1)CC2` [Compound I-24], for which the IC50 in test [1] fell in the range of 1 to 10 nM. For the same compound, the IC50 in test [2] was in the range of 1 to 10 nM. In test [3], the EC50 fell in the range of 1 to 100 nM and the “% of Cells” value is on record as “++ (“++” indicates about 6-10%)”.
In the case of `O=C1NC(=O)C(c2cnc3ccccn23)=C1c1cn2c3c(cc(F)c(F)c13)CN(C(=O)N1CCCCC1)CC2` [Compound I-48], the IC50 in test [1] is 1 to 10 nM. The IC50 in test [2] lay in the range of 1 to 10 nM. Further, in test [3], the EC50 fell in the range of 1 to 100 nM and the “% of Cells” value is listed as “++ (“++” indicates about 6-10%)”.
In the case of `O=C1NC(=O)C(c2cnc3ccccn23)=C1c1cn2c3c(cc(F)cc13)CN(C(=O)NCC1CCNCC1)CC2` [Compound I-37], the IC50 in test [1] and in test [2] was 1 to 10 nM in each case. Moreover, the EC50 in test [3] was > 1000 nM. Moreover, the “% of Cells” value in test [3] is on record as “+ (“+” indicates about 0-5%)”.
Consider `O=C1NC(=O)C(c2cnc3ccccn23)=C1c1cn2c3c(cc(C(F)(F)F)cc13)CN(C(=O)N1CCCCC1)CC2` [Compound I-1], for which the IC50 in test [1] was in the range of 1 to 10 nM. Also, the IC50 in test [2] is 1 to 10 nM. Also, in test [3], the EC50 fell in the range of 1 to 100 nM and the “% of Cells” value is reported as “+++ (“+++” indicates greater than about 11%)”.
In the case of `CN1CCC2(CCN(C(=O)N3CCn4cc(C5=C(c6cnc7ccccn67)C(=O)NC5=O)c5cc(F)cc(c54)C3)CC2)C1` [Compound I-41], the IC50 in test [1] and in test [2] was 1 to 10 nM throughout. Besides, the EC50 in test [3] was > 1000 nM. In addition, in test [3], the “% of Cells” value was “+++ (“+++” indicates greater than about 11%)”.
As for `O=C1NC(=O)C(c2cnc3ccccn23)=C1c1cn2c3c(cc(F)cc13)CN(C(=O)N1CCC(CO)CC1)CC2` [Compound I-6], the IC50 in test [1] and in test [2] was 1 to 10 nM in each case. Also, the EC50 in test [3] lay within 1 to 100 nM. Moreover, the “% of Cells” value in test [3] is “+++ (“+++” indicates greater than about 11%)”.
For the compound `N#Cc1cc2c3c(c1)c(C1=C(c4cnc5ccccn45)C(=O)NC1=O)cn3CCN(C(=O)N1CCCCC1)C2` [Compound I-2], the IC50 in test [1] was 1 to 10 nM. The IC50 in test [2] lay in the range of 1 to 10 nM. In test [3], the EC50 lay in the range of 1 to 100 nM and the “% of Cells” value was “+++ (“+++” indicates greater than about 11%)”.
For `CN(CC1CCNCC1)C(=O)N1CCn2cc(C3=C(c4cnc5ccccn45)C(=O)NC3=O)c3cc(F)cc(c32)C1` [Compound I-38], the IC50 in test [1] lay within 1 to 10 nM. In test [2], the IC50 is 1 to 10 nM. Also, in test [3], the EC50 is > 1000 nM and the “% of Cells” value is given as “+ (“+” indicates about 0-5%)”.
Take `N#Cc1cc2c3c(c1)c(C1=C(c4cnc5ccccn45)C(=O)NC1=O)cn3CCN(C(=O)N1CCC(F)(F)CC1)C2` [Compound I-16]: in test [1], the IC50 is 1 to 10 nM. Moreover, the IC50 in test [2] lay in the range of 1 to 10 nM. Further, in test [3], the EC50 lay within 100 to 1000 nM and the “% of Cells” value is “+++ (“+++” indicates greater than about 11%)”.
For the compound `CN1CC2CC1CN2C(=O)N1CCn2cc(C3=C(c4cnc5ccccn45)C(=O)NC3=O)c3cc(F)cc(c32)C1` (stereo not shown) [Compound I-40], in test [1], the IC50 lay in the range of 1 to 10 nM. Moreover, the IC50 in test [2] lay within 1 to 10 nM. In addition, in test [3], the EC50 is > 1000 nM and the “% of Cells” value was “+ (“+” indicates about 0-5%)”.
